From ChEMBL document CHEMBL1146708, “4-Amino cyclohexylglycine analogues as potent dipeptidyl peptidase IV inhibitors” (Bioorg Med Chem Lett, 2004)

Tests used:
[1] = Oral bioavailability in rat; type: ADME, organism-based; details: in vivo
[2] = Plasma clearance in rats; type: ADME, organism-based; details: rat, read-out: Clp
[3] = Half life in rats; type: ADME, organism-based; details: rat, in vivo
[4] = target: Dipeptidyl peptidase 4 (Homo sapiens, UniProt P27487)
[5] = target: Dipeptidyl peptidase 2 (Homo sapiens, UniProt Q9UHL4); assay: Inhibitory activity against quiescent cell prolyl peptidase (QPP).
[6] = target: Voltage-gated inwardly rectifying potassium channel KCNH2 (Homo sapiens, UniProt Q12809); assay: Binding affinity for Potassium channel HERG Kv11.1
Sequence of Voltage-gated inwardly rectifying potassium channel KCNH2 (Q12809 whole entry): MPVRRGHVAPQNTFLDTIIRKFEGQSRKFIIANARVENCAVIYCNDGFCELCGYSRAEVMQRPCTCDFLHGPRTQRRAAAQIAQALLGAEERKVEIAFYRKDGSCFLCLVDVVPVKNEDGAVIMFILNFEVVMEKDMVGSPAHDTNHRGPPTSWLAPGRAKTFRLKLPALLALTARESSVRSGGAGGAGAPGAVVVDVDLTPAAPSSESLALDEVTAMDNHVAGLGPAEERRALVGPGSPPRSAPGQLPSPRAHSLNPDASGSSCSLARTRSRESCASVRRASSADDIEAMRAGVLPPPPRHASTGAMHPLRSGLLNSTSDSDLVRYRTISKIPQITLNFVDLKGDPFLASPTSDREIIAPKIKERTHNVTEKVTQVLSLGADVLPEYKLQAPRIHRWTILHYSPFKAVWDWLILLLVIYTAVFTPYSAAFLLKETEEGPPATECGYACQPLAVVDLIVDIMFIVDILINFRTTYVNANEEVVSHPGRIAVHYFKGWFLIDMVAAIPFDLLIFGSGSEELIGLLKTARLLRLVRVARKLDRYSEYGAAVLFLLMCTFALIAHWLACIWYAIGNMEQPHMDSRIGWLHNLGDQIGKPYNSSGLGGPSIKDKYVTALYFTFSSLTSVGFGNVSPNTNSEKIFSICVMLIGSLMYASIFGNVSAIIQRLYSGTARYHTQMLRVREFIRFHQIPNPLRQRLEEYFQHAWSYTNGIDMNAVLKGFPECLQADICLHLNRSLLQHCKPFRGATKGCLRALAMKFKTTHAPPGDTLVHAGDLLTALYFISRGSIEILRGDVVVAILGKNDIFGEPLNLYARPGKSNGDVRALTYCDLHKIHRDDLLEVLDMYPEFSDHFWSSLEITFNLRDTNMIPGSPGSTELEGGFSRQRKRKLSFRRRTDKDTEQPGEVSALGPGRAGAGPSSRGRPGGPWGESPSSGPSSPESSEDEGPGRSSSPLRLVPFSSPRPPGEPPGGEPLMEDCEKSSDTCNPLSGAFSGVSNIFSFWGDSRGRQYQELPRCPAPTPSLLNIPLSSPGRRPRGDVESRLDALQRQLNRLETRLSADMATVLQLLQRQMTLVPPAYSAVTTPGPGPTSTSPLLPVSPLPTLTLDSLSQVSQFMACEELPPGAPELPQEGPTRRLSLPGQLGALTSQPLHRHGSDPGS

[7] = Half life in dogs; type: ADME, organism-based, Canis lupus familiaris; details: dog, in vivo
[8] = Oral bioavailability (F) in dogs; type: ADME, organism-based, Canis lupus familiaris; details: dog, in vivo
[9] = Clearance in dogs; type: ADME, organism-based, Canis lupus familiaris; details: dog, in vivo
[10] = organism: Mus musculus; assay: Compound (3 mpk) was tested for reduction in glucose excursion in mice by using oral glucose tolerance test (OGTT) after 1 hour; type: functional

Sequence of Dipeptidyl peptidase 4 (P27487 whole entry): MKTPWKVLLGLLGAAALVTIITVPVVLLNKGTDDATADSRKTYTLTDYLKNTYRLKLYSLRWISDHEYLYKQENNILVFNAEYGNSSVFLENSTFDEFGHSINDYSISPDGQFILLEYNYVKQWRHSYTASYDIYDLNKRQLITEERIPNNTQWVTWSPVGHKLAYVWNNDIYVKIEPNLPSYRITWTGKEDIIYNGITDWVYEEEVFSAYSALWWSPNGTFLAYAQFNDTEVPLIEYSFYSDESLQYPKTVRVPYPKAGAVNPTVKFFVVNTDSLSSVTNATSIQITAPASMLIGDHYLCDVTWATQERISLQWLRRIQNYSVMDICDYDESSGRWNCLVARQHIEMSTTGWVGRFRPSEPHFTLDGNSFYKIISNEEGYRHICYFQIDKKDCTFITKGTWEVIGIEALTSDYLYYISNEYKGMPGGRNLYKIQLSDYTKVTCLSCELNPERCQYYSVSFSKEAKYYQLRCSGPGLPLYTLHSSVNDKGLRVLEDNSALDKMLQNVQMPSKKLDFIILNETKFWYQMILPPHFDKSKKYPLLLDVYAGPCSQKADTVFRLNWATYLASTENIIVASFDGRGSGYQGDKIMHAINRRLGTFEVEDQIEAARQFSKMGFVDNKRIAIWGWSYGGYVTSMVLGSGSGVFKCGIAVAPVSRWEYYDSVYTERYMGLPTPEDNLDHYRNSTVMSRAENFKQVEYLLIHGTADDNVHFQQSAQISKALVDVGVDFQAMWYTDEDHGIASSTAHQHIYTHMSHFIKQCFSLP

bioavailability [1] [%] | clearance [2] [mL/min/kg] | half-life [3] [min] | IC50 [4] [nM] | IC50 [5] [nM] | SMILES | also measured
 |  |  | 23 | 280 | N[C@H](C(=O)N1CCSC1)[C@H]1CC[C@H](NS(=O)(=O)c2ccc(I)cc2)CC1 | 
85 | 21 | 282 |  |  | N[C@H](C(=O)N1CCSC1)[C@H]1CC[C@H](NS(=O)(=O)c2ccc(OC(F)(F)F)cc2)CC1 | 
38 | 31 | 216 |  |  | N[C@H](C(=O)N1CCCC1)[C@H]1CC[C@H](NS(=O)(=O)c2ccc(OC(F)(F)F)cc2)CC1 | 
 |  |  | 17 | 170 | N[C@H](C(=O)N1CCSC1)[C@H]1CC[C@H](NC(=O)Nc2ccc(Cl)c(Cl)c2)CC1 | 
51 | 22 | 72 | 15 | 900 | N[C@H](C(=O)N1CCSC1)[C@H]1CC[C@H](NC(=O)c2cccc3ccccc23)CC1 | Ki [6]: 22 µM
 |  |  | 17 | 170 | N[C@H](C(=O)N1CCSC1)[C@H]1CC[C@H](NC(=O)OCc2cccc3ccccc23)CC1 | 
 |  |  | 33 | 340 | N[C@H](C(=O)N1CCSC1)[C@H]1CC[C@H](NC(=O)c2ccc(I)cc2)CC1 | 
 |  |  |  | 6600 | N#Cc1ccc(NCCNCC(=O)N2CCC[C@H]2C#N)nc1 | 
 |  |  | 24 | 820 | N#Cc1cccc(S(=O)(=O)N[C@H]2CC[C@H]([C@H](N)C(=O)N3CCSC3)CC2)c1 | 
 |  |  | 20 | 200 | N[C@H](C(=O)N1CCSC1)[C@H]1CC[C@H](NC(=O)OCc2ccc3ccccc3c2)CC1 | 
 |  |  | 21 | 230 | N[C@H](C(=O)N1CCSC1)[C@H]1CC[C@H](NC(=O)c2ccc3ccccc3c2)CC1 | 

More lines, now with the values behind:

SMILES | bioavailability [1] [%] | clearance [2] [mL/min/kg] | half-life [3] [min] | IC50 [4] [nM] | IC50 [5] [nM] | also measured
N[C@H](C(=O)N1CCCC1)[C@H]1CC[C@H](NC(=O)c2cccc3ccccc23)CC1 | 30 | 13 | 138 | 46 | 8600 | Ki [6]: 17 µM
N[C@H](C(=O)N1CCCC1)[C@H]1CC[C@H](NS(=O)(=O)c2ccc(F)c(F)c2F)CC1 |  |  |  | 98 | 8200 | 
N[C@H](C(=O)N1CCSC1)[C@H]1CC[C@H](NS(=O)(=O)c2ccc(F)c(F)c2F)CC1 |  |  |  | 24 | 960 | 
N[C@H](C(=O)N1CCSC1)[C@H]1CC[C@H](NC(=O)c2cnc3ccccc3c2)CC1 |  |  |  | 9 | 230 | 
N[C@H](C(=O)N1CCSC1)[C@H]1CC[C@H](NC(=O)Nc2ccc(F)c(F)c2)CC1 |  |  |  | 35 | 380 | 
N[C@H](C(=O)N1CCSC1)[C@H]1CC[C@H](NC(=O)c2ccc(Cl)c(Cl)c2)CC1 |  |  |  | 38 | 230 | 
N[C@H](C(=O)N1CCSC1)[C@H]1CC[C@H](NC(=O)Nc2ccc(I)cc2)CC1 | 12 | 74 | 138 | 10 | 210 | Ki [6]: 1.9 µM
N[C@H](C(=O)N1CCSC1)[C@H]1CC[C@H](NC(=O)c2ccc(F)c(F)c2)CC1 | 81 | 30 | 120 |  |  | 
CN(C)C(=O)Nc1ccc(S(=O)(=O)N[C@H]2CC[C@H]([C@H](N)C(=O)N3CCCC3)CC2)cc1 | 1 | 21 | 144 | 26 | 12000 | 
N[C@H](C(=O)N1CCCC1)[C@H]1CC[C@H](NC(=O)OCc2ccccc2)CC1 | 52 | 28 | 240 |  |  | 
N[C@H](C(=O)N1CCSC1)[C@H]1CC[C@H](NC(=O)Nc2ccc(OC(F)(F)F)cc2)CC1 |  |  |  | 55 | 350 | 
N[C@H](C(=O)N1CCSC1)[C@H]1CC[C@H](NS(=O)(=O)c2ccc3ccccc3c2)CC1 |  |  |  | 18 | 170 | 
N[C@H](C(=O)N1CCCC1)[C@H]1CC[C@H](NS(=O)(=O)c2ccc(NS(=O)(=O)CC(F)(F)F)cc2)CC1 | 0 | 95 | 6 |  | 15000 | Ki [6]: > 100 µM
N[C@H](C(=O)N1CCSC1)[C@H]1CC[C@H](NC(=O)OCc2ccc(Cl)c(Cl)c2)CC1 |  |  |  | 29 | 170 | 
N[C@H](C(=O)N1CCCC1)[C@H]1CC[C@H](NS(=O)(=O)c2ccc(F)cc2F)CC1 | 36 | 53 | 108 |  |  | half-life [7]: 360 min; bioavailability [8]: 100%; clearance [9]: 14 mL/min/kg; Reduction [10]: 36%
N[C@H](C(=O)N1CCSC1)[C@H]1CC[C@H](N)CC1 |  |  |  | 2700 |  | 
CN(C)C(=O)Nc1ccc(S(=O)(=O)N[C@H]2CC[C@H]([C@H](N)C(=O)N3CCSC3)CC2)cc1 |  |  |  | 7.5 | 2000 | 
